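The compound was tested at five concentrations on cells cultured in 96-well plates, with a 48-hour exposure period. GI50: concentration for 50% inhibition of growth.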 The source made the active and inactive calls. Rule as the data show it: active = GI50 up to about 1.1 µM and inactive = higher. *1 amine or outer side, *2 acyl side, *3 side chain or, on linkers, in order; H or OH if unused. Where a SMILES comes first, the peptide text is derived from it. The star is where a group is joined. γGlu = O=C(O)[CH](CCC(=O)[*:2])N[*:1]; NHOH = ON*
How the values were obtained:
Assay in all cases: NCI anticancer screen, dose series, 48 h
[1] = tested on: BT-549
[2] = tested on: DLD-1
[3] = tested on: DMS-273
[4] = tested on: LXFL 529
[5] = tested on: M19-MEL
[6] = tested on: RXF 631
[7] = tested on: SNB-78
[8] = tested on: XF498
[9] = tested on: HOP-18

O=C1CSC2(CC(/C=C/c3ccccc3)=NN2c2cccc(S(=O)(=O)O)c2)N1c1nc2ccccc2s1 (centres undefined)
GI50 [1]: 24.8 µM (inactive)

C[Si](C)(C)C#CCOC=C1CC1
GI50 [1]: > 100 µM (inactive)

CNc1ccc2nc(-c3ccc(OC(=O)N(C)C)cc3)cn2c1
GI50 [1]: 17.8 µM (inactive)

c1ccc(C(c2cccc3c2ccc2ccccc23)C(c2ccccc2)c2cccc3c2ccc2ccccc23)cc1 (centres undefined)
GI50 [1]: > 100 µM (inactive)

COc1ccc(C(=O)CCN(C)C)c2ccccc12
GI50 [1]: 19.3 µM (inactive)

CN1CCCC2(CCCc3ccccc32)C1 (centres undefined)
GI50 [2]: > 100 µM (inactive) | GI50 [3]: > 100 µM (inactive) | GI50 [4]: > 100 µM (inactive) | GI50 [5]: > 100 µM (inactive) | GI50 [6]: > 100 µM (inactive) | GI50 [7]: > 100 µM (inactive)

CC(=O)NNc1nc(C)c(C(=O)NNC(=O)C(=O)Nc2c(C)cccc2C(C)(C)C)s1
GI50 [2]: 61.8 µM (inactive) | GI50 [3]: 47.1 µM (inactive) | GI50 [4]: 69.8 µM (inactive) | GI50 [5]: 48 µM (inactive) | GI50 [7]: > 100 µM (inactive) | GI50 [8]: > 100 µM (inactive)

O=C1c2ccccc2C(=O)c2nn(N=P(CP(=Nn3nc4c(n3)C(=O)c3ccccc3C4=O)(c3ccccc3)c3ccccc3)(c3ccccc3)c3ccccc3)nc21
GI50 [1]: > 100 µM (inactive)

O=C(O)C(CO)NC(=O)C1C(C(=O)O)C(c2ccccc2[N+](=O)[O-])C=C(c2ccco2)N1c1ccncc1 (centres undefined)
GI50 [1]: 5.85 µM (inactive)

ClC1=C(Cl)C(Cl)(Cl)SS1
GI50 [1]: > 8.73 µM (inactive)

CSc1c(C#N)c2n(c3ccccc13)c1ccccc1[n+]2C
GI50 [1]: 19.7 µM (inactive)

COCC(=O)[C@]1(O)Cc2c(O)c3c(c(O)c2[C@@H](OC2CC(N)C(O)C(C)O2)C1)C(=O)c1c(OC)cccc1C3=O (some centres undefined)
GI50 [1]: 0.161 µM (active) | GI50 [2]: 0.0532 µM (active) | GI50 [3]: 0.0391 µM (active) | GI50 [4]: 0.0713 µM (active) | GI50 [5]: 0.0676 µM (active) | GI50 [7]: 0.278 µM (active) | GI50 [8]: 0.0573 µM (active)

Cc1c2c(c(C)c3c4c(oc13)CCCC4)C=NCC2
GI50 [1]: 16.8 µM (inactive)

CCOC(=O)c1cnc(N(C)C)nc1SC(=N)N
GI50 [1]: > 100 µM (inactive)

c1ccc2c(c1)NC(C1OC3CCCN3C1C1Nc3ccccc3S1)S2 (centres undefined)
GI50 [1]: 78.2 µM (inactive)

O=C1OC(=O)C2=C1C(c1cccs1)C=C(c1cccnc1)N2c1ccncc1 (centres undefined)
GI50 [1]: 15.5 µM (inactive)

CCC(C)n1c(C)nc2c1C(=O)c1ccccc1C2=O (centres undefined)
GI50 [2]: 27.2 µM (inactive) | GI50 [3]: 34.2 µM (inactive) | GI50 [4]: 33.4 µM (inactive) | GI50 [5]: 18.2 µM (inactive) | GI50 [7]: > 100 µM (inactive) | GI50 [8]: 44.8 µM (inactive)

CCOC(=O)NC(Nc1ccc(C(=O)O)cc1)(C(F)(F)F)C(F)(F)F
GI50 [1]: > 100 µM (inactive)

CN(C)/C=N/S(=O)(=O)c1nn2c(C=O)c(-c3cc4ccccc4oc3=O)nc2s1
GI50 [1]: 8.65 µM (inactive)

O=c1c2cccnc2ncn1CCCN1CCCCC1
GI50 [2]: > 100 µM (inactive) | GI50 [3]: > 100 µM (inactive) | GI50 [5]: > 100 µM (inactive) | GI50 [7]: > 100 µM (inactive) | GI50 [8]: > 100 µM (inactive)

CC1=C(Cl)C=CP(=O)(OC(C)C)C1 (centres undefined)
GI50 [2]: 35.7 µM (inactive) | GI50 [9]: > 100 µM (inactive) | GI50 [4]: > 100 µM (inactive) | GI50 [5]: > 100 µM (inactive) | GI50 [6]: 33.1 µM (inactive) | GI50 [7]: > 100 µM (inactive)

Cc1c2cnccc2c(C)c2c1[nH]c1ccc(O)cc12
GI50 [1]: 6.01 µM (inactive)

O=C1c2ccccc2-c2nc(/C=C/c3ccccc3)cc3c2c1nc1ccccc13
GI50 [1]: 36.8 µM (inactive)

CCOC(=O)C(NC(=O)Nc1ccccc1F)(OC)C(F)(F)F (centres undefined)
GI50 [1]: > 100 µM (inactive)

Cc1nnc(N)s/c1=N/O
GI50 [1]: > 100 µM (inactive)

O=NN1CCNC1Cc1ccccc1 (centres undefined)
GI50 [1]: > 100 µM (inactive)

NC(=O)c1c(NC=O)ncn1C1OCC(O)C(O)C1O (centres undefined)
GI50 [1]: > 100 µM (inactive)

Cc1nc2c(=O)[nH]c(=O)n(C)c2[nH]c1=O.c1ccncc1
GI50 [2]: > 100 µM (inactive) | GI50 [3]: > 100 µM (inactive) | GI50 [4]: > 100 µM (inactive) | GI50 [5]: > 100 µM (inactive)

COc1ccc(NN=C2C(=O)CCC2=O)cc1
GI50 [2]: > 100 µM (inactive) | GI50 [3]: > 100 µM (inactive) | GI50 [9]: > 100 µM (inactive) | GI50 [5]: > 100 µM (inactive) | GI50 [6]: > 100 µM (inactive) | GI50 [7]: > 100 µM (inactive)

CC(=O)Nc1ccc(/C=C/c2ccc(NC(=O)Nc3ccc(/C=C/c4ccc(NC(C)=O)cc4S(=O)(=O)O)c(S(=O)(=O)O)c3)cc2S(=O)(=O)O)c(S(=O)(=O)O)c1
GI50 [2]: > 100 µM (inactive) | GI50 [3]: > 87.9 µM (inactive) | GI50 [9]: > 95.5 µM (inactive) | GI50 [5]: > 100 µM (inactive) | GI50 [7]: > 100 µM (inactive) | GI50 [8]: > 48 µM (inactive)

CC(=O)OCC1OC(OC2CC3C(C)(C)C(OC(C)=O)CC[C@]3(C)C3CCC45CC4(CCC5[C@@H](C)C[C@H](O)C(O)C(C)(C)O)[C@]23C)C(O)C(O)C1O (some centres undefined)
GI50 [1]: > 10 µM (inactive)

CC(C(=O)OCc1ccccc1)N(Cc1ccccc1)Cc1ccccc1 (centres undefined)
GI50 [2]: > 100 µM (inactive) | GI50 [3]: 57.9 µM (inactive) | GI50 [4]: > 100 µM (inactive) | GI50 [7]: > 100 µM (inactive) | GI50 [8]: 24 µM (inactive)

OC[C@H]1CCCC1O (some centres undefined)
GI50 [1]: > 100 µM (inactive)

C[B@@-]1(c2ccc(C(F)(F)F)cc2)N[C@@H](Cc2ccccc2)C(=O)O1
GI50 [1]: > 100 µM (inactive)

Cc1csc(-c2cn(C)c3c2C(=O)C(=N)C=C3O)n1
GI50 [1]: 44.9 µM (inactive)

COc1ccc2oc(S(=O)(=O)N3CC(CCl)c4ccc(N)cc43)cc2c1 (centres undefined)
GI50 [1]: 2.31 µM (inactive)

NC(CCC(=O)NC(CCC(=O)NO)C(=O)NCC(=O)O)C(=O)O (centres undefined) (γGlu-Glu(NHOH)-Gly-OH; configuration not given here)
GI50 [1]: > 100 µM (inactive)

Reference: ChEMBL document CHEMBL1201862, “PubChem BioAssay data set” (2004)
